Measured values as given in ChEMBL document CHEMBL4622913, “Synthesis and biological evaluation of arylphosphonium-benzoxaborole conjugates as novel anticancer agents” (Bioorg Med Chem Lett, 2020).
Calls of active or inactive are those of the source. The rule behind the calls is not given here.

Assays:
Assay type in all cases: functional, cell-based
MCF7 = experiment: Antiproliferative activity against human MCF7 cells assessed as reduction in cell viability after 72 hrs by MTT assay; conditions: MCF7, 72 h
MIA PaCa-2 = experiment: Antiproliferative activity against human MIAPaCa2 cells assessed as reduction in cell viability after 72 hrs by MTT assay; conditions: MIA PaCa-2, 72 h
4T1 [1] = experiment: Induction of mitochondrial morphological changes in mouse 4T1 cells assessed as fragmentation of mitochondrial networks at 100 uM after 24 hrs by mitotracker Red-CMXROS dye based epifluorescent microscopic analysis
WiDr [2] = experiment: Antiproliferative activity against human WiDr cells assessed as reduction in cell viability after 72 hrs by MTT assay
4T1 [3] = experiment: Antiproliferative activity against mouse 4T1 cells assessed as reduction in cell viability after 72 hrs by MTT assay; conditions: 4T1, 72 h
WiDr [4] = experiment: Induction of mitochondrial morphological changes in human WiDr cells assessed as fragmentation of mitochondrial networks at 100 uM after 24 hrs by mitotracker Red-CMXROS dye based epifluorescent microscopic analysis
WiDr [5] = experiment: Induction of mitochondrial stress in human WiDr cells assessed as acute change in oxygen consumption rate by measuring reduction in ATP production at 50 to 100 uM in presence of oligomycin/FCCP/antimycin/rotenone by seahorse XFe96 analyser based assay
4T1 [6] = experiment: Induction of mitochondrial membrane damage in mouse 4T1 cells assessed as increase in proton leak at 50 to 100 uM in presence of oligomycin/FCCP/antimycin/rotenone by seahorse XFe96 analyser based assay
4T1 [7] = experiment: Induction of mitochondrial stress in mouse 4T1 cells assessed as effect on spare respiratory capacity at 50 to 100 uM in presence of oligomycin/FCCP/antimycin/rotenone by seahorse XFe96 analyser based assay
4T1 [8] = experiment: Induction of glycolytic stress in mouse 4T1 cells assessed as reduction in glycolytic capacity at 50 to 100 uM in presence of glucose/oligomycin and 2-deoxyglucose by seahorse XFe96 analyser based assay
WiDr [9] = experiment: Induction of mitochondrial stress in human WiDr cells assessed as reduction in maximal respiration at 50 to 100 uM in presence of oligomycin/FCCP/antimycin/rotenone by seahorse XFe96 analyser based assay
4T1 [10] = experiment: Induction of mitochondrial stress in mouse 4T1 cells assessed as acute change in oxygen consumption rate by measuring reduction in ATP production at 100 uM in presence of oligomycin/FCCP/antimycin/rotenone by seahorse XFe96 analyser based assay
WiDr [11] = experiment: Induction of mitochondrial membrane damage in human WiDr cells assessed as increase in proton leak at 50 to 100 uM in presence of oligomycin/FCCP/antimycin/rotenone by seahorse XFe96 analyser based assay
WiDr [12] = experiment: Induction of glycolytic stress in human WiDr cells assessed as increase in glycolysis at 50 to 100 uM in presence of glucose/oligomycin and 2-deoxyglucose by seahorse XFe96 analyser based assay
4T1 [13] = experiment: Induction of glycolytic stress in mouse 4T1 cells assessed as increase in glycolysis at 50 to 100 uM in presence of glucose/oligomycin and 2-deoxyglucose by seahorse XFe96 analyser based assay
WiDr [14] = experiment: Induction of mitochondrial stress in human WiDr cells assessed as effect on spare respiratory capacity at 50 to 100 uM in presence of oligomycin/FCCP/antimycin/rotenone by seahorse XFe96 analyser based assay
WiDr [15] = experiment: Induction of glycolytic stress in human WiDr cells assessed as reduction in glycolytic capacity at 100 uM in presence of glucose/oligomycin and 2-deoxyglucose by seahorse XFe96 analyser based assay
4T1 [16] = experiment: Induction of glycolytic stress in mouse 4T1 cells assessed as reduction in glycolytic reverse at 50 to 100 uM in presence of glucose/oligomycin and 2-deoxyglucose by seahorse XFe96 analyser based assay
4T1 [17] = experiment: Induction of mitochondrial stress in mouse 4T1 cells assessed as reduction in maximal respiration at 100 uM in presence of oligomycin/FCCP/antimycin/rotenone by seahorse XFe96 analyser based assay
WiDr [18] = experiment: Induction of glycolytic stress in human WiDr cells assessed as reduction in glycolytic reverse at 50 to 100 uM in presence of glucose/oligomycin and 2-deoxyglucose by seahorse XFe96 analyser based assay

SMILES	IC50 (MCF7) [µM]	IC50 (MIA PaCa-2) [µM]	Activity (4T1 [1])	IC50 (WiDr [2]) [µM]	IC50 (4T1 [3]) [µM]	Activity (WiDr [4])	Activity (WiDr [5])	Activity (4T1 [6])	Activity (4T1 [7])	Activity (4T1 [8])	Activity (WiDr [9])	Activity (4T1 [10])	Activity (WiDr [11])	Activity (WiDr [12])	Activity (4T1 [13])	Activity (WiDr [14])	Activity (WiDr [15])	Activity (4T1 [16])	Activity (4T1 [17])	Activity (WiDr [18])
O=C(CC[P+](c1ccc(F)cc1)(c1ccc(F)cc1)c1ccc(F)cc1)Nc1ccc2c(c1)B(O)OC2	> 100	> 100	inactive	> 100	> 100	inactive														
COc1ccc([P+](CCC(=O)Nc2ccc3c(c2)B(O)OC3)(c2ccc(OC)cc2)c2ccc(OC)cc2)cc1	> 100	> 100		> 100	> 100															
O=C(CCBr)Nc1ccc2c(c1)B(O)OC2	> 100	> 100		> 100	> 100															
Cc1ccc([P+](CCC(=O)Nc2ccc3c(c2)B(O)OC3)(c2ccc(C)cc2)c2ccc(C)cc2)cc1	46	44	Active	24	50	Active	Active	Active	inactive	inactive	Active	Active	Active	Active	Active	inactive	Active	Active	inactive	Active
O=C(CC[P+](c1ccccc1)(c1ccccc1)C1CCCCC1)Nc1ccc2c(c1)B(O)OC2	> 100	> 100		> 100	> 100															
O=C(CC[P+](c1ccccc1)(c1ccccc1)c1ccccc1)Nc1ccc2c(c1)B(O)OC2	> 100	> 100	inactive	> 100	> 100	inactive														
